In one data set the test system is Rat dopaminergic neurons. Briefly: Dopaminergic neuron survival with MPP+ intoxication. The data set is classed as cell-based. To be noted: MPP+ 16 μM, 48 hours. On the procedure: Rat dopaminergic neurons were cultured as described by Schinelli et al., 1988. Briefly pregnant female rats of 15 days gestation were killed by cervical dislocation (Rats Wistar; Janvier) and the fetuses removed from the uterus. The embryonic midbrains were removed and placed in ice-cold medium of Leibovitz (L15; Invitrogen) containing 1% of Penicillin-Streptomycin (PS; Invitrogen) and 1% of bovine serum albumin (BSA; Sigma). Only the ventral portions of the mesencephalic flexure were used for the cell preparations as this is the region of the developing brain rich in dopaminergic neurons.
The midbrains were dissociated by trypsinisation for 20 min at 37° C. (10% of trypsin EDTA 10×; Invitrogen) diluted in PBS without calcium and magnesium. The reaction was stopped by the addition of Dulbecco's modified Eagle's medium (DMEM; Invitrogen) containing DNAase I grade II (0.1 mg/ml; Roche Diagnostic;) and 10% of fetal calf serum (FCS; Invitrogen). Cells were then mechanically dissociated by 3 passages through a 10 ml pipette. Cells were then centrifuged at 180×g for 10 min at room temperature on a layer of BSA (3.5%) in L15 medium. The supernatant was discarded and the cells of pellet were re-suspended in a defined culture medium consisting of Neurobasal (Invitrogen) supplemented with B27 (2%; Invitrogen), L-glutamine (0.2 mM; Invitrogen) and 1% of PS solution. Viable cells were counted in a Neubauer cytometer using the trypan blue exclusion test.
The cells were seeded at a density of 69 000 cells/well in 96 well-plates (wells were pre-coated with poly-L-lysine (10 μg/ml; Sigma)) and were cultured at 37° C. in a humidified air (95%)/CO2 (5%) atmosphere. Half of the medium was changed every 2 days with fresh medium. In these conditions, after 5 days of culture, astrocytes were present in the culture and release growth factor allowing neurons differentiation. Three to five percent of the neuronal cell population were dopaminergic neurons.
On day 6, the medium was removed and fresh medium was added with or without MPP^+ at 16 μM and with or without test substance. After 48 hours of intoxication (day 8 of culture), the cells were fixed with PFA 4%. Dopaminergic neurons were labeled by a monoclonal anti-tyrosine hydroxylase (TH) antibody (Sigma). This antibody labels the neurites and cell bodies of dopaminergic neurons. […] For each condition, 2×10 pictures per well were taken using InCell Analyzer™ 1000 (Amersham Biosciences) with 10× magnification. All the images were taken in the same conditions.
Analysis of the neurite length and number of neurons labeled with anti tyrosine hydroxylase (TH) antibodies with or without MPP+ intoxication was carried out using InCell Analyzer™ 1000 3.2.Workstation software. Dopaminergic neurons and total length neurites were counted on the 10 pictures (12 analyses by culture condition).

The target in a further data set is T1, RET via GFRα (UniProt P07949+Q62997).
T1 construct: Full-length flag-tagged rat Gfrα1 cDNA; FLAG; expressed in transfected cells; host or cells: αLUC cells: MG87RET murine fibroblasts stably transfected with GFRα1 plasmid, Gal4-Luc and Gal4-Elk
T1 sequence (Q62997 25-430 limits assumed): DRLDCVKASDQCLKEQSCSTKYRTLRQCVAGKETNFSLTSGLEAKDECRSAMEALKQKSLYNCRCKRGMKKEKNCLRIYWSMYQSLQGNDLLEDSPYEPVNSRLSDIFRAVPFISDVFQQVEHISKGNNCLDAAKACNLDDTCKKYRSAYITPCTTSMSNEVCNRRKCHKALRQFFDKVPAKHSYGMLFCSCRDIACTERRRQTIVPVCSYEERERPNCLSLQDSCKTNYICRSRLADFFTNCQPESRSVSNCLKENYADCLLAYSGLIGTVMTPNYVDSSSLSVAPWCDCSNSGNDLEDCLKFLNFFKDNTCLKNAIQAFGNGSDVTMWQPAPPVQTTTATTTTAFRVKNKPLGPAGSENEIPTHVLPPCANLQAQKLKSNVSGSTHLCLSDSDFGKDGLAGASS
T1 sequence (P07949 29-1114): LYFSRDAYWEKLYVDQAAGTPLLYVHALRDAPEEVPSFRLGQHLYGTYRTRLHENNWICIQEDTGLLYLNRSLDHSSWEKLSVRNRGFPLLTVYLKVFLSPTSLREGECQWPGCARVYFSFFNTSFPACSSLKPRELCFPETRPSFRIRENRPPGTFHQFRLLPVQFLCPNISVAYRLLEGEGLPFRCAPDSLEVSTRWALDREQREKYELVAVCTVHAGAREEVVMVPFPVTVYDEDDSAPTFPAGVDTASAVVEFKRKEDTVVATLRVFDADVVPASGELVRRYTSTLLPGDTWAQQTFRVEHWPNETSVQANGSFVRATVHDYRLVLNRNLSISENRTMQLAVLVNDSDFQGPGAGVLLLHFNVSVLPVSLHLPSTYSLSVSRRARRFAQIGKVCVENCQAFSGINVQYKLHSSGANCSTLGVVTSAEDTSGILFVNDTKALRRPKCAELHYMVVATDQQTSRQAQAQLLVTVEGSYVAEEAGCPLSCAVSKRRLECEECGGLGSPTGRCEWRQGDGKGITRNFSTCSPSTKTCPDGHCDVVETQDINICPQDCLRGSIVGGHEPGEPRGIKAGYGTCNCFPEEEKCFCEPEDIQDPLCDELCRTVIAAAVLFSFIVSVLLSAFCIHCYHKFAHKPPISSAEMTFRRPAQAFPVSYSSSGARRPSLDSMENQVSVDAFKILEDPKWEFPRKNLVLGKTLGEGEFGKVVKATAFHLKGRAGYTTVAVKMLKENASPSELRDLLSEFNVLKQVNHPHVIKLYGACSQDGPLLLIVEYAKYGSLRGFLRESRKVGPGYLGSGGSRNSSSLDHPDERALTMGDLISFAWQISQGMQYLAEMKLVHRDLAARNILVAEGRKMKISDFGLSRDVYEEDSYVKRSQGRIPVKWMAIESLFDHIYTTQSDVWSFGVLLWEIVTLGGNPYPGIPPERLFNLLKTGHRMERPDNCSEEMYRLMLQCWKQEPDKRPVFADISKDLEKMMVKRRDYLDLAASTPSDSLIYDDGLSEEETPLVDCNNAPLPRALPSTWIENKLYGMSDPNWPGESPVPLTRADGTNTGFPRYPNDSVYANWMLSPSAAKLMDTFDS
Put plainly: RET phosphorylation assay by immunoprecipitation and Western blotting (FIG. 4). The data set is classed as cell-based. To be noted: FIG. 4 lanes; active / inactive. On the procedure: αLUC and NOα cells plated on 35 mm tissue culture dishes were starved for 4 hours in serum-free DMEM and stimulated with 500 ng/ml of PSPN or 100 ng/ml of GDNF (positive control) for 15 min. […] The membranes were washed 3 times for 5 min in TBS-T and incubated in the 1:3000 solution of secondary anti-mouse antibodies conjugated with HRP (DAKO) diluted in TBS-T containing 3% nonfat dry milk for 45 min at room temperature. Membranes were washed with TBS-T for 5×10 min. Stained bands were visualized with ECL reagent (Pierce) using LAS3000 imaging program. […] We used secondary anti-goat antibodies conjugated with HRP (1:1500, DAKO) to detect C-20.

Another data set relates to 6-OHDA lesioned rats. Put plainly: Amphetamine induced rotation asymmetry in 6-OHDA rat model of Parkinson's disease (FIG. 7). Type of data set: in vivo. An excerpt:
The objective of this study is to investigate the effect of intrastriatally (i.s.) administered small molecule GDNF mimetics (compounds 13, 16, 319H6 and 292651, structures shown in the description of the Figures, above) in a rat model 6-OHDA of Parkinson's disease. In the sub-acute lesion model used in this study, the lesion of the substantia nigra (SNc) that slowly progresses over weeks is created by injection of 6-OHDA into the proximity of the dopaminergic terminals in the striatum (Kirik-D 1998, Exp. Neurol. 152:259-277). In this model, a portion of the nigrostriatal projection is left intact, which can serve as a substrate for regeneration and functional recovery in response to growth promoting and neuroprotective agents.
(§1) GDNF mimetics compounds, GDNF or vehicle is administered to the striatum at 3 weeks after the exposure to the neurotoxin 6-OHDA. The selective damage to dopaminergic neurons in the SNc, as well as striatal levels of dopamine and its metabolites are evaluated 12 weeks after the injection of 6-OHDA with tyrosine hydroxylase (TH) immunohistochemistry and HPLC, respectively. In addition, the behavioral impairment of rats is evaluated by forelimb asymmetry test (cylinder test), amphetamine induced rotation asymmetry test and Y-maze test for stereotypic spontaneous rotation deficits.
Animals: All animal experiments are carried out according to the National Institute of Health (NIH) guidelines for the care and use of laboratory animals, and approved by the State Provincial Office of Southern Finland. Altogether 108 male Wistar rats, purchased from Charles River, Germany and weighing 220-275 g are used for the experiment. Animals are housed at a standard temperature (22±1° C.) and in a light-controlled environment (lights on from 7 am to 8 pm) with ad libitum access to food and water. Animals are grouped as follows:
In order to generate partial retrograde degeneration into the SNc, 6-OHDA lesioning is carried out according to Sauer and Oertel with modifications (Sauer and Oertel, 1994). Male Wistar rats are anesthetized with 5% isoflurane (in 70% N2O and 30% O2; flow 300 ml/min) and placed in a stereotactic frame. During the operation concentration of anesthetic is reduced to 1-1.5%. The rectal temperature is maintained at 37.0±1.0° C. with a homeothermic blanket system. The right brain hemisphere is exposed through a small craniectomy to the skull. The dura mater is carefully removed with fine forceps and a stereotaxic injection of 6-OHDA (4 μg/μl) is made into the right striatum. A total of 7 μl of 6-OHDA is infused at a speed of 0.5 μl/min and is equally distributed between 4 sites at the following coordinates: AP+1.0, ML+2.8, DV−6.0, −5.5, −5.0 and −4.4 mm. The cannula is left in place for another 5 min before being withdrawn. The hole in the skull is subsequently filled with repair material and the skin is closed and disinfected. The rats are allowed to recover from anesthesia and are carefully monitored for possible post surgical complications. The animals are returned to the home cages with ad libitum access to food and water.
On day 21, rats are re-anesthetized with 5% isoflurane (in 70% N2O and 30% O2; flow 300 ml/min) and placed in a stereotactic frame. During the operation concentration of anesthetic is reduced to 1-1.5%. The rectal temperature is maintained at 37.0±1.0° C. with a homeothermic blanket system. The right brain hemisphere is exposed through a small craniectomy to the skull. A stereotaxic injection of the test compound, GDNF or vehicle is made into the right striatum. Each dosing solution is infused at a speed of 1 μl/min and is equally distributed between 4 sites at the following coordinates: AP+1.0, ML+2.8, DV−6.0, −5.5, −5.0 and −4.4 mm. The cannula is left in place for another 5 min before being withdrawn. The hole in the skull is subsequently filled with repair material and the skin is closed and disinfected. […]

In another data set the test system is 6-OHDA-treated rats. Briefly: Side effects / toxic effects after intrastriatal injection in 6-OHDA-treated rats. Type of data set: in vivo. To be noted: injected intrastriatally. The protocol: as §1
On day 21, rats are re-anesthetized with 5% isoflurane (in 70% N2O and 30% O2; flow 300 ml/min) and placed in a stereotactic frame. During the operation concentration of anesthetic is reduced to 1-1.5%. The rectal temperature is maintained at 37.0±1.0° C. with a homeothermic blanket system. The right brain hemisphere is exposed through a small craniectomy to the skull. A stereotaxic injection of the test compound, GDNF or vehicle is made into the right striatum. Each dosing solution is infused at a speed of 1 μl/min and is equally distributed between 4 sites at the following coordinates: AP+1.0, ML+2.8, DV−6.0, −5.5, −5.0 and −4.4 mm. The cannula is left in place for another 5 min before being withdrawn. The hole in the skull is subsequently filled with repair material and the skin is closed and disinfected. The rats are allowed to recover from anesthesia and are carefully monitored for possible post surgical complications. The animals are returned to the home cages with ad libitum access to food and water.
Animals are monitored daily by laboratory personnel. […] Definitions of acceptable endpoints include: no spontaneous movements and inability to drink or eat in 24-h observation period, massive bleeding, spontaneous inflammation, missing anatomy, swelling or tumors larger than 20 mm, and inability to right itself in 30 sec period.

`CCN(CC)S(=O)(=O)c1ccc(OC)c(N2CCN(C(=O)c3ccc(F)cc3C(F)(F)F)CC2)c1` [319H6]: the “% Cytoprotection vs controls” value was 9% in the data set with Rat dopaminergic neurons (0.1 μM), 33% with Rat dopaminergic neurons (1 μM) and 36% in the data set on Rat dopaminergic neurons (10 μM). The “% TH+ Neurons” value in the data set on Rat dopaminergic neurons (0.1 μM) is 59%; with Rat dopaminergic neurons (1 μM), 70%; in the data set with Rat dopaminergic neurons (10 μM) it was 71%.

For `CCN(CC)CCCC(C)Nc1ccnc2cc(Cl)ccc12` (stereo not drawn) [chloroquine], the “RET activation (phosphotyrosine Western blot of immunoprecipitated RET)” value (“RET activation” below) on RET via GFRα is “inactive”.

As for `CCN(CC)CCCCCCNc1ccnc2cc(Cl)ccc12` [compound 108], the “RET activation” value at RET via GFRα was “inactive”.

Consider `OCCNCCNc1c2ccccc2nc2cc(Cl)ccc12` [compound 13005], for which the “RET activation” value at RET via GFRα was “inactive”.

For the molecule `CC(CCCN(C)Cc1ccccc1)Nc1ccnc2cc(Cl)ccc12` (stereo not drawn) [compound 143511], the “RET activation” value at RET via GFRα is “active”.

Turning to `CCN(CC)CCCC(C)Nc1cc(/C=C/c2ccc(Cl)cc2)nc2ccc(N(C)C)cc12` (stereo not drawn) [compound 219902], the “RET activation” value at RET via GFRα is listed as “active”.

Take `CCN(CC)CCCC(C)Nc1cc(/C=C/c2ccc(Cl)cc2)nc2cc(N(C)C)ccc12` (stereo not drawn) [compound 292651]: the “RET activation” value at RET via GFRα was “active”. In addition, in the data set with 6-OHDA lesioned rats (1 ug intrastriatal, 3 weeks after 6-OHDA, measured 6 weeks after 6-OHDA), the amphetamine-induced ipsilateral rotation result is reported as “reduced amphetamine-induced ipsilateral rotation”. Further, in the data set with 6-OHDA lesioned rats (injected into striatum 3 weeks after 6-OHDA, dose not stated), the “amphetamine-induced ipsilateral rotation of lesioned rats” value was “significantly reduce”. In addition, in the data set on 6-OHDA-treated rats, the “toxic effects in behavioral assays” value is given as “did not cause toxic effects”.

As to `Clc1ccc2c(NCCCCCCNc3ccnc4cc(Cl)ccc34)ccnc2c1` [compound 349051], on RET via GFRα, the “RET activation” value is “inactive”.

B1: BDNF: native brain-derived neurotrophic factor, comparator in the neuron survival assay (protein, UniProt P23560 19-247, looked up)
Neurotrophic factor BDNF …: APMKEANIRGQGGLAYPGVRTHGTLESVNGPKAGSRGLTSLADTFEHVIEELLDEDQKVRPNEENNKDADLYTSRVMLSSQVPLEPPLLFLLEEYKNYLDAANMSMRVRRHSDPARRGELSVCDSISEWVTAADKKTAVDMSGGTVTVLEKVPVSKGQLKQYFYETKCNPMGYTKEGCRGIDKRHWNSQCRTTQSYVRALTMDSKKRIGWRFIRIDTSCVCTLTIKRGR
In the case of B1, in the data set with Rat dopaminergic neurons (10 ng/mL), the “% Cytoprotection vs controls” value is on record as 49% and the “% TH+ Neurons” value is 77%.

(Values after patent US8901129B2, “Methods of facilitating neural cell survival using GDNF family ligand (GFL) mimetics or RET signaling pathway activators” (GeneCode AS, priority 2009, dated 2014).)
